# Read-outs that look alike come from different tables or passages of the source. Where a SMILES comes first, the peptide text is derived from it.
# Legend:
# [1] = test system: M. abscessus clinical isolate MAB10; experiment: In vitro susceptibility testing (DST), CLSI broth microdilution; assay type: cell-based, M. abscessus subsp. abscessus; design: key to DST profile, interpretation, Day 3 / DST profile, interpretation, Day 5 / DST profile, interpretation, Day 14: S, susceptible; I, intermediate; R, resistant; settings: for MIC: Mycobacteroides abscessus
# Protocol: (§1) Drug susceptibility testing (DST) was performed according to the Clinical and Laboratory Standards Institute (CLSI) guidelines M24-A2 [42] using the broth microdilution method to determine the minimum inhibitory concentration (MIC). […] Colonies were grown at an adjusted cell density to a 0.5 McFarland standard and further diluted to 5×10^5 CFU/ml. […] These were then incubated at 37°C for 3, 5 and 14 days. The MIC was defined as the concentration in which no visible growth was observed. The results were interpreted according to the guidelines of CLSI. Inducible resistance was inferred by changes in MIC values from being susceptible at day 3 to resistant at day 14.
# [2] = test system: M. abscessus clinical isolate MAB05; experiment: as above; assay type: cell-based, M. abscessus subsp. abscessus; design: key to DST profile, interpretation, Day 3 / DST profile, interpretation, Day 5 / DST profile, interpretation, Day 14: S, susceptible; I, intermediate; R, resistant; settings: for MIC: Mycobacteroides abscessus
# Protocol: as §1
# [3] = test system: M. abscessus clinical isolate MAB04; experiment: as above; assay type: cell-based, M. abscessus subsp. abscessus; design: key to DST profile, interpretation, Day 3 / DST profile, interpretation, Day 5 / DST profile, interpretation, Day 14: S, susceptible; I, intermediate; R, resistant; settings: for MIC: Mycobacteroides abscessus
# Protocol: as §1
# [4] = test system: M. abscessus clinical isolate MAB11; experiment: as above; assay type: cell-based, M. abscessus subsp. abscessus; design: key to DST profile, interpretation, Day 3 / DST profile, interpretation, Day 5 / DST profile, interpretation, Day 14: S, susceptible; I, intermediate; R, resistant; settings: for MIC: Mycobacteroides abscessus
# Protocol: as §1
# [5] = test system: M. abscessus clinical isolate MAB02; experiment: as above; assay type: cell-based, M. abscessus subsp. abscessus; design: key to DST profile, interpretation, Day 3 / DST profile, interpretation, Day 5 / DST profile, interpretation, Day 14: S, susceptible; I, intermediate; R, resistant; settings: for MIC: Mycobacteroides abscessus
# Protocol: as §1
# [6] = test system: M. abscessus clinical isolate MAB07; experiment: as above; assay type: cell-based, M. abscessus subsp. abscessus; design: key to DST profile, interpretation, Day 3 / DST profile, interpretation, Day 5 / DST profile, interpretation, Day 14: S, susceptible; I, intermediate; R, resistant; settings: for MIC: Mycobacteroides abscessus
# Protocol: as §1
# [7] = test system: M. abscessus clinical isolate MAB01; experiment: as above; assay type: cell-based, M. abscessus subsp. abscessus; design: key to DST profile, interpretation, Day 3 / DST profile, interpretation, Day 5 / DST profile, interpretation, Day 14: S, susceptible; I, intermediate; R, resistant; settings: for MIC: Mycobacteroides abscessus
# Protocol: as §1
# [8] = test system: M. abscessus clinical isolate MAB06; experiment: as above; assay type: cell-based, M. abscessus subsp. abscessus; design: key to DST profile, interpretation, Day 3 / DST profile, interpretation, Day 5 / DST profile, interpretation, Day 14: S, susceptible; I, intermediate; R, resistant; settings: for MIC: Mycobacteroides abscessus
# Protocol: as §1
# [9] = test system: M. abscessus clinical isolate MAB03; experiment: as above; assay type: cell-based, M. abscessus subsp. abscessus; design: key to DST profile, interpretation, Day 3 / DST profile, interpretation, Day 5 / DST profile, interpretation, Day 14: S, susceptible; I, intermediate; R, resistant; settings: for MIC: Mycobacteroides abscessus
# Protocol: as §1
# [10] = test system: M. abscessus clinical isolate MAB08; experiment: as above; assay type: cell-based, M. abscessus subsp. abscessus; design: key to DST profile, interpretation, Day 3 / DST profile, interpretation, Day 5 / DST profile, interpretation, Day 14: S, susceptible; I, intermediate; R, resistant; settings: for MIC: Mycobacteroides abscessus
# Protocol: as §1
# [11] = test system: M. abscessus clinical isolate MAB09; experiment: as above; assay type: cell-based, M. abscessus subsp. abscessus; design: key to DST profile, interpretation, Day 3 / DST profile, interpretation, Day 5 / DST profile, interpretation, Day 14: S, susceptible; I, intermediate; R, resistant; settings: for MIC: Mycobacteroides abscessus
# Protocol: as §1
# [12] = 72 h, day 3, read-out: DST profile, MIC value, Day 3
# [13] = 120 h, day 5, read-out: DST profile, MIC value, Day 5
# [14] = 336 h, day 14, read-out: DST profile, MIC value, Day 14
smiles,measurement,setting,value
"CC[C@H]1OC(=O)[C@H](C)[C@@H](O[C@H]2C[C@@](C)(OC)[C@@H](O)[C@H](C)O2)[C@H](C)[C@@H](O[C@@H]2O[C@H](C)C[C@H](N(C)C)[C@H]2O)[C@](C)(OC)C[C@@H](C)C(=O)[C@H](C)[C@@H](O)[C@]1(C)O [CLA, Clarithromycin]",MIC,[1]; [12],1020 µg/mL
same,MIC,[1]; [13],1020 µg/mL
same,MIC,[1]; [14],1020 µg/mL
same,"DST profile, interpretation, Day 3","[1]; day 3, CLSI interpretation",R
same,"DST profile, interpretation, Day 5","[1]; day 5, CLSI interpretation",R
same,"DST profile, interpretation, Day 14","[1]; day 14, CLSI interpretation",R
same,MIC,[2]; [12],4 µg/mL
same,MIC,[2]; [13],8 µg/mL
same,MIC,[2]; [14],16 µg/mL
same,"DST profile, interpretation, Day 3","[2]; day 3, CLSI interpretation",I
same,"DST profile, interpretation, Day 5","[2]; day 5, CLSI interpretation",R
same,"DST profile, interpretation, Day 14","[2]; day 14, CLSI interpretation",R
same,MIC,[3]; [12],2 µg/mL
same,MIC,[3]; [13],16 µg/mL
same,MIC,[3]; [14],64 µg/mL
same,"DST profile, interpretation, Day 3","[3]; day 3, CLSI interpretation",S
same,"DST profile, interpretation, Day 5","[3]; day 5, CLSI interpretation",R
same,"DST profile, interpretation, Day 14","[3]; day 14, CLSI interpretation",R
same,MIC,[4]; [12],0.5 µg/mL
same,MIC,[4]; [13],16 µg/mL
same,"DST profile, interpretation, Day 3","[4]; day 3, CLSI interpretation",S
same,"DST profile, interpretation, Day 5","[4]; day 5, CLSI interpretation",R
same,"DST profile, interpretation, Day 14","[4]; day 14, CLSI interpretation",R
same,MIC,[5]; [12],1 µg/mL
same,MIC,[5]; [13],8 µg/mL
same,MIC,[5]; [14],64 µg/mL
same,"DST profile, interpretation, Day 3","[5]; day 3, CLSI interpretation",S
same,"DST profile, interpretation, Day 5","[5]; day 5, CLSI interpretation",R
same,"DST profile, interpretation, Day 14","[5]; day 14, CLSI interpretation",R
same,MIC,[6]; [12],4 µg/mL
same,MIC,[6]; [13],16 µg/mL
same,MIC,[6]; [14],16 µg/mL
same,"DST profile, interpretation, Day 3","[6]; day 3, CLSI interpretation",I
same,"DST profile, interpretation, Day 5","[6]; day 5, CLSI interpretation",R
same,"DST profile, interpretation, Day 14","[6]; day 14, CLSI interpretation",R
same,MIC,[7]; [12],1020 µg/mL
same,MIC,[7]; [13],1020 µg/mL
same,MIC,[7]; [14],1020 µg/mL
same,"DST profile, interpretation, Day 3","[7]; day 3, CLSI interpretation",R
same,"DST profile, interpretation, Day 5","[7]; day 5, CLSI interpretation",R
same,"DST profile, interpretation, Day 14","[7]; day 14, CLSI interpretation",R
same,MIC,[8]; [12],0.5 µg/mL
same,MIC,[8]; [13],2 µg/mL
same,MIC,[8]; [14],32 µg/mL
same,"DST profile, interpretation, Day 3","[8]; day 3, CLSI interpretation",S
same,"DST profile, interpretation, Day 5","[8]; day 5, CLSI interpretation",S
same,"DST profile, interpretation, Day 14","[8]; day 14, CLSI interpretation",R
same,MIC,[9]; [12],8 µg/mL
same,MIC,[9]; [13],8 µg/mL
same,MIC,[9]; [14],8 µg/mL
same,"DST profile, interpretation, Day 3","[9]; day 3, CLSI interpretation",R
same,"DST profile, interpretation, Day 5","[9]; day 5, CLSI interpretation",R
same,"DST profile, interpretation, Day 14","[9]; day 14, CLSI interpretation",R
same,MIC,[10]; [12],1 µg/mL
same,MIC,[10]; [13],2 µg/mL
same,MIC,[10]; [14],8 µg/mL
same,"DST profile, interpretation, Day 3","[10]; day 3, CLSI interpretation",S
same,"DST profile, interpretation, Day 5","[10]; day 5, CLSI interpretation",S
same,"DST profile, interpretation, Day 14","[10]; day 14, CLSI interpretation",R
same,MIC,[11]; [12],0.25 µg/mL
same,MIC,[11]; [13],8 µg/mL
same,MIC,[11]; [14],8 µg/mL
same,"DST profile, interpretation, Day 3","[11]; day 3, CLSI interpretation",S
same,"DST profile, interpretation, Day 5","[11]; day 5, CLSI interpretation",R
same,"DST profile, interpretation, Day 14","[11]; day 14, CLSI interpretation",R
CC[C@H](C)[C@H](NC(=O)[C@H](CCCCN)NC(=O)[C@H](CCCNC(=N)N)NC(=O)CNC(=O)[C@H](CC(C)C)NC(=O)[C@H](CO)NC(=O)[C@H](CCCNC(=N)N)NC(=O)[C@H](CC(C)C)NC(=O)CNC(=O)CN)C(=O)N[C@@H](CC(C)C)C(=O)N[C@@H](CCCNC(=N)N)C(=O)N[C@@H](C)C(=O)N[C@@H](Cc1c[nH]c2ccccc12)C(=O)N[C@@H](CCCCN)C(=O)N[C@@H](CCCCN)C(=O)N[C@@H](Cc1ccc(O)cc1)C(=O)O [S61] (H-GGLRSLGRKILRAWKKY-OH),"MIC within 24 h, majority of isolates (10/16)",,< 50 µg/mL
